According to patent publication US20250368606A1, “CRYSTALLINE FORMS AND SALT FORMS OF A KINASE INHIBITOR” (Exelixis, Inc., priority 2021, published 2025):

Legend:
Format in all cases: physicochemical
[1] = Desolvation / drying attempts at elevated temperature, solids analysed by XRPD
Procedure: Vacuum Oven Desolvation: Salts of Compound 1 that were determined to be solvates by various analytical methods underwent an attempted desolvation. […] Samples were analyzed by XRPD and/or TGA for determination of desolvation success.

[2] = Physical stability (form conversion) of solid forms
[3] = Visual (aqueous) solubility estimation; details: water, thermodynamic from solid, visual observation
Procedure: Solubility Estimation: Aliquots of various solvents were added to measured amounts of Compound 1 with agitation (typically sonication) at stated temperatures until complete dissolution was achieved, as judged by visual observation.
Aqueous Solubility Estimation: Aliquots of water were added to measured amounts of various Compound 1 salts with sonication.

[4] = dried under vacuum at 80° C. for 1 day

## CNC(=O)c1cc2c(Oc3ccc(NC(=O)C4(C(=O)Nc5ccc(F)cc5)CC4)cc3)ccnc2cc1OC [Compound 1 Hemifumarate Form D]
[1]; [4]
  form of post-drying solids (XRPD): a mixture of Compound 1 free base Form A and Compound 1 Hemifumarate Form B

## CNC(=O)c1cc2c(Oc3ccc(NC(=O)C4(C(=O)Nc5ccc(F)cc5)CC4)cc3)ccnc2cc1OC [Form U]
[1]; 60° C.-72° C. vacuum 6 days
  XRPD Results after desolvation attempt: Form T + Form U
[1]; 70° C. vacuum 3 days
  XRPD Results after desolvation attempt: Form U + Form T
[1]; 105-120° C. vacuum, 2 hours
  XRPD Results after desolvation attempt: Form T (blue grey)
[1]; 170° C. 15 minutes
  XRPD Results after desolvation attempt: Form T + Form A (grey brown)

## CNC(=O)c1cc2c(Oc3ccc(NC(=O)C4(C(=O)Nc5ccc(F)cc5)CC4)cc3)ccnc2cc1OC [Form R]
[1]; 105-120° C. vacuum, 2 hours
  XRPD Results after desolvation attempt: Form K
[1]; 110° C., 1 hour
  XRPD Results after desolvation attempt: Form K + X

## CNC(=O)c1cc2c(Oc3ccc(NC(=O)C4(C(=O)Nc5ccc(F)cc5)CC4)cc3)ccnc2cc1OC [Hemifumarate Form E]
[1]; dried under vacuum at 72° C. for 1 day
  form of post-drying solids (XRPD): unique disordered crystalline pattern

## CNC(=O)c1cc2c(Oc3ccc(NC(=O)C4(C(=O)Nc5ccc(F)cc5)CC4)cc3)ccnc2cc1OC [Hemifumarate Form F]
[1]; post-drying sample further dried under vacuum at 88° C. for 1 day
  form of post-drying solids (XRPD): maintained the same form

## CNC(=O)c1cc2c(Oc3ccc(NC(=O)C4(C(=O)Nc5ccc(F)cc5)CC4)cc3)ccnc2cc1OC [Compound 1 Form S]
[2]; likely NMP solvate, only obtained as a mixture with Form A
  physical stability of the solvate: readily converts to Form A

## CNC(=O)c1cc2c(Oc3ccc(NC(=O)C4(C(=O)Nc5ccc(F)cc5)CC4)cc3)ccnc2cc1OC [Napsylate Form A]
[1]; 48° C. under vacuum for approximately 3 days
  physical stability under drying conditions (XRPD): XRPD peaks attributed to Napsylate Form B increased in intensity
[1]; 120° C. for 30 minutes
  physical stability under drying conditions (XRPD): A mixture of Napsylate Form B and Form C

## CNC(=O)c1cc2c(Oc3ccc(NC(=O)C4(C(=O)Nc5ccc(F)cc5)CC4)cc3)ccnc2cc1OC [Compound 1 Hemifumarate Form C]
[1]; [4]
  form of post-drying solids (XRPD): a mixture of Hemifumarate Form B, with trace Compound 1 free base Form A, and a few additional peaks

## CNC(=O)c1cc2c(Oc3ccc(NC(=O)C4(C(=O)Nc5ccc(F)cc5)CC4)cc3)ccnc2cc1OC [Amorphous Compound 1, N-(4-fluorophenyl)-N-(4-((7-methoxy-6-(methylcarbamoyl)quinolin-4-yl)oxy)phenyl)cyclopropane-1,1-dicarboxamide]
[3]
  solubility: < 250 µg/mL
[2]; elevated temperature
  physical stability: resulting form on exposure to elevated temperature: Material K
[2]; immediately on contact with diethyl ether
  physical stability: resulting form on contact with diethyl ether: crystallized to a mixture of Forms X and K
